Assay results: US4791215A, “Derivatives of glutamic acid and aspartic acid” (priority 1984, dated 1988)
Several values for one entry are separate records, joined by “and”; a condition that tells them apart may be missing. Equal entries are not always repeated.

Experiments:
[1] = test system: enkephalinamide (DALA) analgesia; assay: Potentiation of DALA (enkephalinamide) analgesia, i.c.v., Tail Flick Test (Experiment 4); format: in vivo, rats; set-up: scale not given here; settings: DALA 10 + compound 0.01 mg/kg (ICV), 0.01 mg/kg
Description: Experiment No. 4: Potentiation of the analgesic activities of enkephalins induced by some of the compounds of the invention. […]

[2] = Food consumption on daily oral dosing; format: in vivo, rats
Experimental: (§1) In order to check the hypothesis that the anti-CCK activity shown by most of the compounds in question may be used to advantage in the treatment of anorexia in man or as an appetite stimulant for farm animals, the following experiment was carried out:
(§2) Male rats having a weight of about 160 g, divided into groups of 10 animals, were used. […]
(§3) The drug, in the form of the sodium salt, was dissolved in water and administered in a volume of 10 ml of H2 O/kg while the control group received an equal volume of the solvent alone.
(§4) The following tables give the average values of the food consumption and the average weight of each group of animals, calculated weekly as well as the Student's t value calculated from the various treated groups and the group of control animals.

[3] = test system: activity of analgesic drugs; assay: Hot-plate test, potentiation of analgesic drugs (Experiment 2); format: in vivo, rats
How it was run: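 Male rats of about 150 g, not fasted, five per group, were placed on a plate held at 55°±1° C. Licking or jumping latency was recorded before and at 10–90 min after dosing, with a 30 s cut-off. A positive response meant at least a doubling of reaction time, reported as positives/treated.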

[4] = test system: endogenous opiates analgesia; assay: Analgesic activity of endogenous opiates released by transcutaneous shock, Tail Flick Test (Experiment 3); format: in vivo, rats
How it was run: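 Non-fasted male rats (~200 g) stressed with 60 Hz-2.5 mA front-leg current, 1 s pulses every 5 s for 20 min, to release endogenous opiates. Analgesia measured by tail flick test.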

[5] = Body weight on daily oral dosing; format: in vivo, rats
Experimental: as §1, §2, §3, §4

[6] = test system: CCK-8 induced contraction of rabbit colon; assay: Anti-spastic activity in the colon stimulated by CCK-8; format: in vivo
Experimental: A much more specific anti-spastic activity, that is adhering much more to a physiological situation, is illustrated by the following experiment.
The abdomen of an anaesthetised rabbit was cut open to show the transverse colon. A small balloon full of water was inserted at the point established and connected to a pressure transducer by means of a polythene cannula filled with water.
The optimum sensitivity was fixed in relation to the physiological conditions and the products were administered through the femoral vein. Contractions were induced by the administration of 100 ng/kg of CCK.

CCCN(CCC)C(=O)C(CCC(=O)O)NC(=O)c1ccc(C)c(C)c1 (stereo not drawn) [Compound C-30]
analgesic activity, Tail Flick ([1]; 10'): 58 and 59.1 | analgesic activity, Tail Flick ([1]; 20'): 60.8 and 67.8 | analgesic activity, Tail Flick ([1]; 30'): 77.0 and 86.0 | analgesic activity, Tail Flick ([1]; 45'): 66.4 and 83.3 | analgesic activity, Tail Flick ([1]; 60'): 48.8 and 83.3 | analgesic activity, Tail Flick ([1]; 90'): 45.0 and 55.1 | MEAN analgesic activity, Tail Flick ([1]; mean): 59.33 and 73.26 | food consumption ([2]; 3 mg/kg os, week 1): 193.7 ± 3.58 g/week | food consumption ([2]; 3 mg/kg os, week 2): 233.2 ± 4.56 g/week | food consumption ([2]; 3 mg/kg os, week 3): 187.1 ± 8.40 g/week | food consumption ([2]; 3 mg/kg os, week 4): 204.0 ± 3.63 g/week | food consumption ([2]; 10 mg/kg os, week 1): 219.8 ± 5.62 g/week | food consumption ([2]; 10 mg/kg os, week 2): 264.3 ± 5.61 g/week | food consumption ([2]; 10 mg/kg os, week 3): 234.5 ± 5.05 g/week | food consumption ([2]; 10 mg/kg os, week 4): 234.6 ± 3.99 g/week | food consumption ([2]; 30 mg/kg os, week 1): 233.7 ± 5.45 g/week | food consumption ([2]; 30 mg/kg os, week 2): 267.9 ± 4.92 g/week | food consumption ([2]; 30 mg/kg os, week 3): 247.0 ± 5.19 g/week | food consumption ([2]; 30 mg/kg os, week 4): 244.5 ± 4.06 g/week | TOTAL positives ([3]; oxyphenylbutazone 50 + compound 3 mg/kg i.p.): 11 x/30 | positive responses over number treated ([3]; oxyphenylbutazone 50 + compound 3 mg/kg i.p., 10'): 1/5 | positive responses over number treated ([3]; oxyphenylbutazone 50 + compound 3 mg/kg i.p., 20'): 1/5 | positive responses over number treated ([3]; oxyphenylbutazone 50 + compound 3 mg/kg i.p., 30'): 3/5 | positive responses over number treated ([3]; oxyphenylbutazone 50 + compound 3 mg/kg i.p., 45'): 2/5 | positive responses over number treated ([3]; oxyphenylbutazone 50 + compound 3 mg/kg i.p., 60'): 2/5 | positive responses over number treated ([3]; oxyphenylbutazone 50 + compound 3 mg/kg i.p., 90'): 2/5 | TOTAL positives ([3]; oxyphenylbutazone 50 + compound 10 mg/kg i.p.): 12 x/30 | positive responses over number treated ([3]; oxyphenylbutazone 50 + compound 10 mg/kg i.p., 10'): 1/5 | positive responses over number treated ([3]; oxyphenylbutazone 50 + compound 10 mg/kg i.p., 20'): 2/5 | positive responses over number treated ([3]; oxyphenylbutazone 50 + compound 10 mg/kg i.p., 30'): 2/5 | positive responses over number treated ([3]; oxyphenylbutazone 50 + compound 10 mg/kg i.p., 45'): 3/5 | positive responses over number treated ([3]; oxyphenylbutazone 50 + compound 10 mg/kg i.p., 60'): 3/5 | positive responses over number treated ([3]; oxyphenylbutazone 50 + compound 10 mg/kg i.p., 90'): 2/5 | TOTAL positives ([3]; oxyphenylbutazone 50 + compound 30 mg/kg i.p.): 20 x/30 | positive responses over number treated ([3]; oxyphenylbutazone 50 + compound 30 mg/kg i.p., 10'): 2/5 | positive responses over number treated ([3]; oxyphenylbutazone 50 + compound 30 mg/kg i.p., 20'): 3/5 | positive responses over number treated ([3]; oxyphenylbutazone 50 + compound 30 mg/kg i.p., 30'): 4/5 | positive responses over number treated ([3]; oxyphenylbutazone 50 + compound 30 mg/kg i.p., 45'): 4/5 | positive responses over number treated ([3]; oxyphenylbutazone 50 + compound 30 mg/kg i.p., 60'): 4/5 | positive responses over number treated ([3]; oxyphenylbutazone 50 + compound 30 mg/kg i.p., 90'): 3/5 | TOTAL positives ([3]; propoxyphene 10 + compound 0.3 mg/kg i.p.): 11 X/30 | positive responses over number treated ([3]; propoxyphene 10 + compound 0.3 mg/kg i.p., 10'): 2/5 | positive responses over number treated ([3]; propoxyphene 10 + compound 0.3 mg/kg i.p., 20'): 1/5 | positive responses over number treated ([3]; propoxyphene 10 + compound 0.3 mg/kg i.p., 30'): 3/5 | positive responses over number treated ([3]; propoxyphene 10 + compound 0.3 mg/kg i.p., 45'): 3/5 | positive responses over number treated ([3]; propoxyphene 10 + compound 0.3 mg/kg i.p., 60'): 2/5 | positive responses over number treated ([3]; propoxyphene 10 + compound 0.3 mg/kg i.p., 90'): 0/5 | TOTAL positives ([3]; propoxyphene 10 + compound 1 mg/kg i.p.): 19 X/30 | positive responses over number treated ([3]; propoxyphene 10 + compound 1 mg/kg i.p., 10'): 3/5 | positive responses over number treated ([3]; propoxyphene 10 + compound 1 mg/kg i.p., 20'): 4/5 | positive responses over number treated ([3]; propoxyphene 10 + compound 1 mg/kg i.p., 30'): 4/5 | positive responses over number treated ([3]; propoxyphene 10 + compound 1 mg/kg i.p., 45'): 4/5 | positive responses over number treated ([3]; propoxyphene 10 + compound 1 mg/kg i.p., 60'): 2/5 | positive responses over number treated ([3]; propoxyphene 10 + compound 1 mg/kg i.p., 90'): 2/5 | TOTAL positives ([3]; propoxyphene 10 + compound 3 mg/kg i.p.): 25 X/30 | positive responses over number treated ([3]; propoxyphene 10 + compound 3 mg/kg i.p., 10'): 3/5 | positive responses over number treated ([3]; propoxyphene 10 + compound 3 mg/kg i.p., 20'): 5/5 | positive responses over number treated ([3]; propoxyphene 10 + compound 3 mg/kg i.p., 30'): 5/5 | positive responses over number treated ([3]; propoxyphene 10 + compound 3 mg/kg i.p., 45'): 5/5 | positive responses over number treated ([3]; propoxyphene 10 + compound 3 mg/kg i.p., 60'): 4/5 | positive responses over number treated ([3]; propoxyphene 10 + compound 3 mg/kg i.p., 90'): 3/5 | average latency, Tail Flick ([4]; compound 1 mg/kg iv + stress, 5'): 7.26 ± 0.52 s | average latency, Tail Flick ([4]; compound 1 mg/kg iv + stress, 10'): 6.10 ± 0.49 s | average latency, Tail Flick ([4]; compound 1 mg/kg iv + stress, 15'): 4.68 ± 0.5 s | average latency, Tail Flick ([4]; compound 3 mg/kg iv + stress, 5'): 9.46 ± 0.64 s | average latency, Tail Flick ([4]; compound 3 mg/kg iv + stress, 10'): 7.96 ± 0.61 s | average latency, Tail Flick ([4]; compound 3 mg/kg iv + stress, 15'): 6.82 ± 0.78 s | body weight ([5]; 3 mg/kg os, time 0): 270.8 ± 8.3 g | body weight ([5]; 3 mg/kg os, week 1): 310.2 ± 7.01 g | body weight ([5]; 3 mg/kg os, week 2): 380.5 ± 6.5 g | body weight ([5]; 3 mg/kg os, week 3): 409.7 ± 2.99 g | body weight ([5]; 3 mg/kg os, week 4): 437.3 ± 55 g | body weight ([5]; 10 mg/kg os, time 0): 271.4 ± 9.3 g | body weight ([5]; 10 mg/kg os, week 1): 332.9 ± 5.7 g | body weight ([5]; 10 mg/kg os, week 2): 383.2 ± 6.5 g | body weight ([5]; 10 mg/kg os, week 3): 439.1 ± 4.3 g | body weight ([5]; 10 mg/kg os, week 4): 470.5 ± 6.5 g | body weight ([5]; 30 mg/kg os, time 0): 267.9 ± 7.7 g | body weight ([5]; 30 mg/kg os, week 1): 315.7 ± 7.4 g | body weight ([5]; 30 mg/kg os, week 2): 371.9 ± 7.9 g | body weight ([5]; 30 mg/kg os, week 3): 437.1 ± 5.2 g | body weight ([5]; 30 mg/kg os, week 4): 488.1 ± 6.4 g

CCCCCN(CCCCC)C(=O)C(CCC(=O)O)NC(=O)c1ccc(Cl)c(Cl)c1 (stereo not drawn) [Compound C-7]
increase in food consumption compared with controls ([2]; 0.3 mg/kg daily): about 15% | food consumption ([2]; 0.3 mg/kg os, week 1): 176.4 ± 3.70 g/week | food consumption ([2]; 0.3 mg/kg os, week 2): 216.8 ± 4.71 g/week | food consumption ([2]; 0.3 mg/kg os, week 3): 239.3 ± 4.07 g/week | food consumption ([2]; 1 mg/kg os, week 1): 199.6 ± 3.88 g/week | food consumption ([2]; 1 mg/kg os, week 2): 230.5 ± 3.09 g/week | food consumption ([2]; 1 mg/kg os, week 3): 261.4 ± 4.24 g/week | food consumption ([2]; 3 mg/kg os, week 1): 198.4 ± 3.66 g/week | food consumption ([2]; 3 mg/kg os, week 2): 244.8 ± 3.09 g/week | food consumption ([2]; 3 mg/kg os, week 3): 268.8 ± 4.86 g/week | increase in food consumption compared with controls ([2]; other doses tested (1, 3 mg/kg daily)): about 30% | body weight ([5]; 0.3 mg/kg os, time 0): 162.1 ± 2.48 g | body weight ([5]; 0.3 mg/kg os, week 1): 201.3 ± 2.7 g | body weight ([5]; 0.3 mg/kg os, week 2): 254.5 ± 2.66 g | body weight ([5]; 0.3 mg/kg os, week 3): 315.2 ± 2.72 g | body weight ([5]; 1 mg/kg os, time 0): 166.0 ± 1.56 g | body weight ([5]; 1 mg/kg os, week 1): 214.7 ± 1.93 g | body weight ([5]; 1 mg/kg os, week 2): 267.5 ± 2.6 g | body weight ([5]; 1 mg/kg os, week 3): 319.8 ± 2.49 g | body weight ([5]; 3 mg/kg os, time 0): 166.6 ± 1.73 g | body weight ([5]; 3 mg/kg os, week 1): 227.9 ± 1.65 g | body weight ([5]; 3 mg/kg os, week 2): 290.9 ± 2.6 g | body weight ([5]; 3 mg/kg os, week 3): 349.5 ± 2.82 g | weight increase versus control animals ([5]; 0.3, 1 and 3 mg/kg os): significantly greater weight increase than the control animals | effect on CCK-8 stimulated colon ([6]; 3 mg/kg iv, single experiments): -100.0 | ED50 ([6]; Oryctolagus cuniculus, iv, CCK 100 ng/kg): 1.11 mg/kg
